Data from PMC5218480 (PLoS ONE, 2017).

System: MV-4-11 cells
Assay: Gene expression microarray analysis (Affymetrix PrimeView) and GSEA
Type: cell-based, human
Parameters: RFU PODN (11730768_x_at) / Fold change /veh PODN (11730768_x_at) / RFU LINC00158 (11744669_a_at) / Fold change /veh LINC00158 (11744669_a_at) / RFU DUSP10 (11751237_a_at) / Fold change /veh DUSP10 (11751237_a_at) / RFU ID3 (11757404_x_at) / Fold change /veh ID3 (11757404_x_at) / RFU PLEKHG5 (11737974_s_at) / Fold change /veh PLEKHG5 (11737974_s_at) / RFU LRRC4B (11730491_at) / Fold change /veh LRRC4B (11730491_at) / RFU GIMAP4 (11747438_a_at) / Fold change /veh GIMAP4 (11747438_a_at) / RFU KRT8 (11758183_x_at) / Fold change /veh KRT8 (11758183_x_at) / RFU CNN1 (11734310_a_at) / Fold change /veh CNN1 (11734310_a_at) / RFU VPS37D (11726825_at) / Fold change /veh VPS37D (11726825_at) / RFU C10orf10 (11716522_x_at) / Fold change /veh C10orf10 (11716522_x_at) / RFU KIR2DL2 /// KIR2DL4 /// KIR2DL5A /// KIR2DL5B /// KIR2DS1 /// KIR2DS2 /// KIR2DS3 /// KIR2DS4 /// KIR3DL3 /// KIR3DL3 /// KIR3DS1 (11738374_at) / Fold change /veh KIR2DL2 /// KIR2DL4 /// KIR2DL5A /// KIR2DL5B /// KIR2DS1 /// KIR2DS2 /// KIR2DS3 /// KIR2DS4 /// KIR3DL3 /// KIR3DL3 /// KIR3DS1 (11738374_at) / RFU C1QL1 (11718748_at) / Fold change /veh C1QL1 (11718748_at) / RFU TMPRSS4 (11747572_a_at) / Fold change /veh TMPRSS4 (11747572_a_at) / RFU HAMP (11756126_x_at) / Fold change /veh HAMP (11756126_x_at) / RFU RNFT2 (11725882_a_at) / Fold change /veh RNFT2 (11725882_a_at) / RFU NR4A2 (11747474_a_at) / Fold change /veh NR4A2 (11747474_a_at) / RFU ABCC12 (11746883_a_at) / Fold change /veh ABCC12 (11746883_a_at) / RFU TMEM136 (11760407_x_at) / Fold change /veh TMEM136 (11760407_x_at) / RFU CLDN22 /// WWC2 (11732394_at) / Fold change /veh CLDN22 /// WWC2 (11732394_at) / RFU HLA-DPB1 (11760878_x_at) / Fold change /veh HLA-DPB1 (11760878_x_at) / RFU SPINT1 (11716480_a_at) / Fold change /veh SPINT1 (11716480_a_at) / RFU GAP43 (11754022_s_at) / Fold change /veh GAP43 (11754022_s_at) / RFU A4GNT (11735810_at) / Fold change /veh A4GNT (11735810_at) / RFU PRB3 (11715151_x_at) / Fold change /veh PRB3 (11715151_x_at) / RFU TUBB4B (11761932_at) / Fold change /veh TUBB4B (11761932_at) / RFU CAPN14 (11732068_a_at) / Fold change /veh CAPN14 (11732068_a_at) / RFU TMCC2 (11721928_a_at) / Fold change /veh TMCC2 (11721928_a_at) / RFU IRGQ (11745062_a_at) / Fold change /veh IRGQ (11745062_a_at) / RFU FAM174B (11720279_a_at) / Fold change /veh FAM174B (11720279_a_at) / RFU TMPRSS4 (11748680_a_at) / Fold change /veh TMPRSS4 (11748680_a_at) / RFU FAM212B (11763350_a_at) / Fold change /veh FAM212B (11763350_a_at) / RFU PLEKHG5 (11743358_a_at) / Fold change /veh PLEKHG5 (11743358_a_at) / RFU ZSCAN30 (11745921_a_at) / Fold change /veh ZSCAN30 (11745921_a_at) / RFU CMKLR1 (11741424_a_at) / Fold change /veh CMKLR1 (11741424_a_at) / RFU LOC101060620 /// MAPK8IP1 (11723275_at) / Fold change /veh LOC101060620 /// MAPK8IP1 (11723275_at) / RFU SPTSSB (11747773_x_at) / Fold change /veh SPTSSB (11747773_x_at) / RFU PRSS12 (11739890_at) / Fold change /veh PRSS12 (11739890_at) / RFU BIN1 (11741810_x_at) / Fold change /veh BIN1 (11741810_x_at) / RFU WNT11 (11732464_a_at) / Fold change /veh WNT11 (11732464_a_at) / RFU C10orf10 (11716521_a_at) / Fold change /veh C10orf10 (11716521_a_at) / RFU C5orf56 (11738089_at) / Fold change /veh C5orf56 (11738089_at) / RFU CYB561 (11721691_x_at) / Fold change /veh CYB561 (11721691_x_at) / RFU ANKRD19P (11752326_a_at) / Fold change /veh ANKRD19P (11752326_a_at) / RFU OR2T12 /// OR2T33 /// OR2T8 (11738714_s_at) / Fold change /veh OR2T12 /// OR2T33 /// OR2T8 (11738714_s_at) / RFU VCAN (11748164_a_at) / Fold change /veh VCAN (11748164_a_at) / RFU JSRP1 (11732532_at) / Fold change /veh JSRP1 (11732532_at) / RFU KRTAP10-11 (11738290_x_at) / Fold change /veh KRTAP10-11 (11738290_x_at) / RFU MYO3A (11730013_a_at) / Fold change /veh MYO3A (11730013_a_at) / RFU EBF3 (11725865_a_at) / Fold change /veh EBF3 (11725865_a_at) / RFU CAMK2N1 (11719241_x_at) / Fold change /veh CAMK2N1 (11719241_x_at) / RFU C5orf56 (11738088_a_at) / Fold change /veh C5orf56 (11738088_a_at) / RFU OLFML3 (11715873_a_at) / Fold change /veh OLFML3 (11715873_a_at) / RFU LOC100653217 /// NTM (11731650_a_at) / Fold change /veh LOC100653217 /// NTM (11731650_a_at) / RFU MAPK11 (11762145_a_at) / Fold change /veh MAPK11 (11762145_a_at) / RFU FIZ1 (11724087_x_at) / Fold change /veh FIZ1 (11724087_x_at) / RFU OASL (11726364_x_at) / Fold change /veh OASL (11726364_x_at) / RFU SOX15 (11748057_x_at) / Fold change /veh SOX15 (11748057_x_at) / RFU CD79A (11719716_a_at) / Fold change /veh CD79A (11719716_a_at) / RFU HIST1H1D (11736915_at) / Fold change /veh HIST1H1D (11736915_at) / RFU CASKIN2 (11723855_a_at) / Fold change /veh CASKIN2 (11723855_a_at) / RFU LOC730098 (11760151_x_at) / Fold change /veh LOC730098 (11760151_x_at) / RFU OR4N2 (11742367_at) / Fold change /veh OR4N2 (11742367_at) / RFU PRRT2 (11749266_a_at) / Fold change /veh PRRT2 (11749266_a_at) / RFU SNX32 (11753110_a_at) / Fold change /veh SNX32 (11753110_a_at) / RFU CDHR5 (11726645_a_at) / Fold change /veh CDHR5 (11726645_a_at) / RFU RCAN1 (11760418_a_at) / Fold change /veh RCAN1 (11760418_a_at) / RFU FAM167A (11723789_a_at) / Fold change /veh FAM167A (11723789_a_at) / RFU FAM26E (11764081_at) / Fold change /veh FAM26E (11764081_at) / RFU ISYNA1 (11749810_s_at) / Fold change /veh ISYNA1 (11749810_s_at) / RFU ACY1 (11761880_at) / Fold change /veh ACY1 (11761880_at) / RFU 11764098_at / Fold change /veh 11764098_at / RFU SAMD14 (11745864_x_at) / Fold change /veh SAMD14 (11745864_x_at) / RFU NPB (11741838_a_at) / Fold change /veh NPB (11741838_a_at) / RFU TMPRSS6 (11731388_a_at) / Fold change /veh TMPRSS6 (11731388_a_at) / RFU KRTAP10-2 (11738614_at) / Fold change /veh KRTAP10-2 (11738614_at) / RFU ARHGAP8 /// PRR5-ARHGAP8 (11727945_x_at) / Fold change /veh ARHGAP8 /// PRR5-ARHGAP8 (11727945_x_at) / RFU KRTAP5-7 /// NADSYN1 (11734609_at) / Fold change /veh KRTAP5-7 /// NADSYN1 (11734609_at) / RFU RASL12 (11751679_a_at) / Fold change /veh RASL12 (11751679_a_at) / RFU CDKN2B (11736163_a_at) / Fold change /veh CDKN2B (11736163_a_at) / RFU PRF1 (11729649_at) / Fold change /veh PRF1 (11729649_at) / RFU, ZNF638 /// ZNF638-IT1 / Fold change vs veh, ZNF638 /// ZNF638-IT1 / RFU, PANK3 / Fold change vs veh, PANK3 / RFU, SH3YL1 / Fold change vs veh, SH3YL1 / RFU, ZEB2 / Fold change vs veh, ZEB2 / RFU, NRIP1 / Fold change vs veh, NRIP1 / RFU, PTTG1IP / Fold change vs veh, PTTG1IP / RFU, CAPN2 / Fold change vs veh, CAPN2 / RFU, MED14 / Fold change vs veh, MED14 / RFU, SNORA58 / Fold change vs veh, SNORA58 / RFU, C1orf63 / Fold change vs veh, C1orf63 / RFU, LRRFIP1 / Fold change vs veh, LRRFIP1 / RFU, NDUFAF7 / Fold change vs veh, NDUFAF7 / RFU, SLC12A2 / Fold change vs veh, SLC12A2 / RFU, IBTK / Fold change vs veh, IBTK / RFU, ESF1 / Fold change vs veh, ESF1 / Fold change vs veh, TMEM50B / RFU, TAOK1 / Fold change vs veh, TAOK1 / RFU, ACBD3 / Fold change vs veh, ACBD3 / RFU, TMA16 / Fold change vs veh, TMA16 / RFU, RWDD3 / Fold change vs veh, RWDD3 / RFU, BCAT1 / Fold change vs veh, BCAT1 / RFU, EDEM3 / Fold change vs veh, EDEM3 / RFU, TMEM33 / Fold change vs veh, TMEM33 / RFU, WDR75 / Fold change vs veh, WDR75 / RFU, AHCTF1 / Fold change vs veh, AHCTF1 / RFU, TFRC / Fold change vs veh, TFRC / RFU, ZDHHC17 / Fold change vs veh, ZDHHC17 / RFU, NOM1 / Fold change vs veh, NOM1 / RFU, ARL8B / Fold change vs veh, ARL8B / RFU, ZBTB11 / Fold change vs veh, ZBTB11 / RFU, TAMM41 / Fold change vs veh, TAMM41 / RFU, KIAA1704 /// LOC100996395 / Fold change vs veh, KIAA1704 /// LOC100996395 / RFU, ING1 / Fold change vs veh, ING1 / RFU, TRMT61B / Fold change vs veh, TRMT61B / RFU, FUBP3 / Fold change vs veh, FUBP3 / RFU, TP53 / Fold change vs veh, TP53 / RFU, TNKS2 / Fold change vs veh, TNKS2 / RFU, ZFP14 / Fold change vs veh, ZFP14 / RFU, ACTR2 / Fold change vs veh, ACTR2 / RFU, PPP3R1 / Fold change vs veh, PPP3R1 / RFU, PIK3R1 / Fold change vs veh, PIK3R1 / RFU, HNRNPA1 / Fold change vs veh, HNRNPA1 / RFU, RNF170 / Fold change vs veh, RNF170 / RFU, ZNF28 / Fold change vs veh, ZNF28 / RFU, RNGTT / Fold change vs veh, RNGTT / RFU, OGT / Fold change vs veh, OGT / RFU, BRD1 / Fold change vs veh, BRD1 / RFU, MARS / Fold change vs veh, MARS / RFU, ZNF655 / Fold change vs veh, ZNF655 / RFU, FAHD1 / Fold change vs veh, FAHD1 / RFU, BDP1 / Fold change vs veh, BDP1 / RFU, LRRCC1 / Fold change vs veh, LRRCC1 / RFU, ARID1A / Fold change vs veh, ARID1A / RFU, ZNF146 / Fold change vs veh, ZNF146 / RFU, ZNF330 / Fold change vs veh, ZNF330 / RFU, GPN3 / Fold change vs veh, GPN3 / RFU, C9orf123 / Fold change vs veh, C9orf123 / RFU, N4BP2L2 / Fold change vs veh, N4BP2L2 / RFU, ARFIP1 / Fold change vs veh, ARFIP1 / RFU, FAM179B / Fold change vs veh, FAM179B / RFU, BCL10 / Fold change vs veh, BCL10 / RFU, UHRF1BP1L / Fold change vs veh, UHRF1BP1L / RFU, BET1 / Fold change vs veh, BET1 / RFU, CNOT2 / Fold change vs veh, CNOT2 / RFU, ZNF268 / Fold change vs veh, ZNF268 / Fold change vs veh, ZNF507 / RFU, DGCR2 / Fold change vs veh, DGCR2 / RFU, WDSUB1 / Fold change vs veh, WDSUB1 / Fold change vs veh, HSP90B1 /// MIR3652 / RFU, ADSS / Fold change vs veh, ADSS / RFU, GK / Fold change vs veh, GK / RFU, ZNF148 / Fold change vs veh, ZNF148 / RFU, TAF9 / Fold change vs veh, TAF9 / RFU, SLC1A5 / Fold change vs veh, SLC1A5 / RFU, SLMO2 / Fold change vs veh, SLMO2 / RFU, ABCC4 / Fold change vs veh, ABCC4 / RFU, LOC101060439 /// RAP1B / Fold change vs veh, LOC101060439 /// RAP1B / RFU, RFX7 / Fold change vs veh, RFX7 / RFU, GTPBP10 / Fold change vs veh, GTPBP10 / RFU, CNEP1R1 / Fold change vs veh, CNEP1R1 / RFU, BIVM-ERCC5 /// ERCC5 / Fold change vs veh, BIVM-ERCC5 /// ERCC5 / RFU, ILF3 / Fold change vs veh, ILF3 / RFU 11762660_at / Fold change /veh 11762660_at / RFU VCAN (11757783_s_at) / Fold change /veh VCAN (11757783_s_at) / RFU DDX43 (11728927_at) / Fold change /veh DDX43 (11728927_at) / RFU KRT8 (11758188_x_at) / Fold change /veh KRT8 (11758188_x_at) / RFU NKD1 (11759106_at) / Fold change /veh NKD1 (11759106_at) / RFU SRD5A1 (11742802_a_at) / Fold change /veh SRD5A1 (11742802_a_at) / RFU TPSAB1 /// TPSB2 (11721975_s_at) / Fold change /veh TPSAB1 /// TPSB2 (11721975_s_at) / RFU GSTM3 (11746129_a_at) / Fold change /veh GSTM3 (11746129_a_at) / RFU IL23R (11737362_x_at) / Fold change /veh IL23R (11737362_x_at) / RFU TMEM51 (11727254_a_at) / Fold change /veh TMEM51 (11727254_a_at) / RFU PIWIL2 (11732686_x_at) / Fold change /veh PIWIL2 (11732686_x_at) / RFU ORM1 (11744905_x_at) / Fold change /veh ORM1 (11744905_x_at) / RFU CCDC152 (11743942_at) / Fold change /veh CCDC152 (11743942_at) / RFU ECM1 (11717891_a_at) / Fold change /veh ECM1 (11717891_a_at) / RFU IL23R (11748794_a_at) / Fold change /veh IL23R (11748794_a_at) / RFU TNFAIP8L3 (11732012_x_at) / Fold change /veh TNFAIP8L3 (11732012_x_at) / RFU MBOAT4 (11741988_at) / Fold change /veh MBOAT4 (11741988_at) / RFU 11764193_at / Fold change /veh 11764193_at / RFU TMEM53 (11763286_at) / Fold change /veh TMEM53 (11763286_at) / RFU MAGEB2 (11727129_at) / Fold change /veh MAGEB2 (11727129_at) / RFU TMEM200A (11744735_a_at) / Fold change /veh TMEM200A (11744735_a_at) / RFU CCDC152 (11751479_a_at) / Fold change /veh CCDC152 (11751479_a_at) / RFU FAM211A (11726209_a_at) / Fold change /veh FAM211A (11726209_a_at) / RFU RGS16 (11746705_a_at) / Fold change /veh RGS16 (11746705_a_at) / RFU VCAN (11755009_s_at) / Fold change /veh VCAN (11755009_s_at) / RFU RHOB (11743442_s_at) / Fold change /veh RHOB (11743442_s_at) / RFU RGS16 (11720943_a_at) / Fold change /veh RGS16 (11720943_a_at) / RFU RGS16 (11720944_at) / Fold change /veh RGS16 (11720944_at) / RFU, VPS4B / Fold change vs veh, VPS4B / RFU, CREB1 / Fold change vs veh, CREB1 / RFU, DNAJC13 / Fold change vs veh, DNAJC13 / RFU, GNAQ / Fold change vs veh, GNAQ / RFU, CDK5R1 / Fold change vs veh, CDK5R1 / RFU, ZRANB3 / Fold change vs veh, ZRANB3 / RFU, CUL4A / Fold change vs veh, CUL4A / RFU, CCNY / Fold change vs veh, CCNY / RFU, UFL1 / Fold change vs veh, UFL1 / RFU, COG3 / Fold change vs veh, COG3 / RFU, DIAPH2 / Fold change vs veh, DIAPH2 / RFU, SKA2 / Fold change vs veh, SKA2 / RFU, AFF3 / Fold change vs veh, AFF3 / RFU, LMF1 / Fold change vs veh, LMF1 / RFU, IPO11 / Fold change vs veh, IPO11 / RFU, DFFB / Fold change vs veh, DFFB / RFU, FOXP1 / Fold change vs veh, FOXP1 / RFU, CARD8 / Fold change vs veh, CARD8 / RFU, STRN3 / Fold change vs veh, STRN3 / RFU, ADK / Fold change vs veh, ADK / RFU, RASSF2 / Fold change vs veh, RASSF2 / RFU, WIPF1 / Fold change vs veh, WIPF1 / RFU, LARP1B / Fold change vs veh, LARP1B / RFU, RASA1 / Fold change vs veh, RASA1 / RFU, RB1 / Fold change vs veh, RB1 / RFU, PPFIA1 / Fold change vs veh, PPFIA1 / RFU, MAT2A / Fold change vs veh, MAT2A / RFU, CCT5 / Fold change vs veh, CCT5 / RFU, WDR92 / Fold change vs veh, WDR92 / RFU, CUX1 / Fold change vs veh, CUX1 / RFU, TTC7A / Fold change vs veh, TTC7A / RFU, TMEM135 / Fold change vs veh, TMEM135 / RFU, DEPTOR / Fold change vs veh, DEPTOR / RFU, CPM / Fold change vs veh, CPM / RFU, DNAJB6 / Fold change vs veh, DNAJB6 / RFU, CACNA2D3 / Fold change vs veh, CACNA2D3 / RFU, DTX4 / Fold change vs veh, DTX4 / RFU, TFCP2 / Fold change vs veh, TFCP2 / RFU, GMCL1 /// GMCL1P1 / Fold change vs veh, GMCL1 /// GMCL1P1 / RFU, AEBP2 / Fold change vs veh, AEBP2 / RFU, SNHG1 /// SNORD22 /// SNORD25 /// SNORD26 /// SNORD27 /// SNORD28 /// SNORD29 /// SNORD31 / Fold change vs veh, SNHG1 /// SNORD22 /// SNORD25 /// SNORD26 /// SNORD27 /// SNORD28 /// SNORD29 /// SNORD31 / Fold change (Aza/veh), C12orf56 (ProbeSet 11735607_a_at) / Fold change (ACY-1035/veh), C12orf56 (ProbeSet 11735607_a_at) / Fold change (Aza/veh), FGFR1OP (ProbeSet 11751329_s_at) / Fold change (ACY-1035/veh), FGFR1OP (ProbeSet 11751329_s_at) / Fold change (Aza/veh), VPS36 (ProbeSet 11739960_a_at) / Fold change (ACY-1035/veh), VPS36 (ProbeSet 11739960_a_at) / RFU SYPL1 (11715823_x_at) / Fold change /veh SYPL1 (11715823_x_at) / RFU IGFBP7 (11715501_s_at) / Fold change /veh IGFBP7 (11715501_s_at) / RFU REEP3 (11722064_at) / Fold change /veh REEP3 (11722064_at) / RFU IGLL1 (11728026_x_at) / Fold change /veh IGLL1 (11728026_x_at): dose or concentration left out as unconfirmed
Details: MV-4-11 cells, 48 hours

## Nc1ncn([C@@H]2O[C@H](CO)[C@@H](O)[C@H]2O)c(=O)n1 [azacitidine]
  Fold change /veh VCAN (11748164_a_at): 1.17
